Laboratory results published in patent US4578245A, “Multilayer analytical element” (Fuji Photo Film Co., Ltd., priority 1982, dated 1986).

Test: Relative Sensitivity in Aqueous Solution System (color formation with H2O2, peroxidase and 1,7-dihydroxynaphthalene)
Conditions: relative steepness of calibration curve; reference (C1) = 1.0; pH 6.0; 37° C., 10 min; 515 nm
Description: The following color-forming composition solutions were prepared using, as coupler, 1,7-dihydroxynaphthalene and, as chromogen, the compounds (1), (6), (7), (18), (C1) and (C2), respectively.
1,7-Dihydroxynaphthalene: 50 μmol
Phosphate buffer: added to adjust to pH 6.0
The color-forming solution having the above composition (5 ml.) was incubated at 37° C. for 3 min., and subsequently 50 μl. of aqueous H2 O2 solution (four levels from 1 mmol to 6 mmol and blank, respectively) was dropped into the incubated color-forming solution. The solution was further incubated at 37° C. for 10 min., and immediately subjected to transmissive spectroscopy at the wavelength of 515 nm for measurement of optical density of the formed color. The relationships between the H2 O2 concentrations and the measured optical density values on the formed color (the value was calculated by subtracting an optical density of the color formed in the blank solution from an optical density of the color formed in the aqueous H2 O2 incorporated solution) were plotted on an orthgonal axes graph to determine the steepness of slope of the calibration curve. The relative sensitivity of each compound is set forth in Table 6 in terms of a relative steepness value based on the reference steepness obtained in the measurement on the solution using the compound (C1). In Table 6, the reference steepness is given as 1.0.

Compound | Relative Sensitivity (aq. sol.)
Cc1c(N)c(=O)n(-c2cccc(Cl)c2)n1C [(1)] | 0.99
Cn1c(-c2ccccc2)c(N)c(=O)n1-c1ccccc1 [(18)] | 0.82
Cn1c(-c2ccccc2)c(N)c(=O)n1C [(C2), reference compound] | 0.77
Cc1c(N)c(=O)n(-c2c(Cl)cc(Cl)cc2Cl)n1C [Compound (6)] | 0.70
Cc1c(N)c(=O)n(-c2ccccc2)n1C [Compound (C1), 4-amino-2,3-dimethyl-1-phenyl-3-pyrazolin-5-one, reference compound] | 1.0
